Assay results from US7973147B2, “K04-0144 substance and a process for production thereof” (The Kitasato Institute, priority 2006, dated 2011).
In brackets after ≈: the same amount, converted by molar mass. Entries after “also recorded” stand apart in the source; their conditions may differ. Where two headings read alike, the source gives them in different places.

How the values were obtained:
S. aureus ISP217 = assay: MIC, agar plate dilution method; format: cell-based; settings: Staphylococcus aureus
Procedure: (§1) Assay of minimum inhibitory concentration (MIC) was performed according to the agar plate dilution method (Method of Japan Society of Chemotherapy, CHEMOTHERAPY 29, 76-79, 1981).
(§2) Test organisms used were 27 types of microorganisms including clinical isolates of methicillin-resistant Staphylococcus aureus. Each test organism was cultured in Mueller-Hinton broth (2.1% w/v) (DIFCO) at 37° C. for 20 hours, and the cultured cells were suspended to about 10^6 cell counts/ml in the same medium, then was used as the microbial suspension for inoculation. The prepared microbial suspension was smeared by using the microplanter on MHA medium (Mueller-Hinton broth 2.1% (w/v) and agar 1.5%) containing K04-0144A substance, K04-0144B substance or K04-0144C substance, each of which was subjected to two-fold stepwise dilution from 128 μg/ml. After culturing at 37° C. for 20 hours, MIC was determined by macroscopically confirming the growth of microorganisms. Vancomycin, arbekacin and linezolid were used as a comparative control.

E. aerogenes NCTC10006 = assay: MIC, agar plate dilution method; format: cell-based; settings: Klebsiella aerogenes
Procedure: as §1, §2

S. aureus ISP447 = assay: MIC, agar plate dilution method; format: cell-based; settings: Staphylococcus aureus
Procedure: as §1, §2

S. aureus Smith = assay: MIC, agar plate dilution method; format: cell-based; settings: Staphylococcus aureus
Procedure: as §1, §2

S. aureus 8325(pMS97) = assay: MIC, agar plate dilution method; format: cell-based; settings: Staphylococcus aureus, 20 h
Procedure: as §1, §2

E. faecalis ATCC21212 = assay: MIC, agar plate dilution method; format: cell-based; settings: Enterococcus faecalis
Procedure: as §1, §2

S. epidermidis IFO12648 = assay: MIC, agar plate dilution method; format: cell-based; settings: Staphylococcus epidermidis
Procedure: as §1, §2

E. coli NIHJ JC-2 = assay: MIC, agar plate dilution method; format: cell-based; settings: Escherichia coli
Procedure: as §1, §2

S. marcescens IFO12648 = assay: MIC, agar plate dilution method; format: cell-based; settings: Serratia marcescens
Procedure: as §1, §2

S. aureus 8325(pEP2104) = assay: MIC, agar plate dilution method; format: cell-based; settings: Staphylococcus aureus, 20 h
Procedure: as §1, §2

P. aeruginosa E-2 = assay: MIC, agar plate dilution method; format: cell-based; settings: Pseudomonas aeruginosa
Procedure: as §1, §2

K. pneumoniae NCTN9632 = assay: MIC, agar plate dilution method; format: cell-based; settings: Klebsiella pneumoniae
Procedure: as §1, §2

[1] = tested on: E. facecalis NTCT12201(VanA); assay: MIC, agar plate dilution method; format: cell-based
Procedure: as §1, §2

P. mirabilis IFO3849 = assay: MIC, agar plate dilution method; format: cell-based; settings: Proteus mirabilis
Procedure: as §1, §2

C. freundii ATCC8090 = assay: MIC, agar plate dilution method; format: cell-based; settings: Citrobacter freundii
Procedure: as §1, §2

P. aeruginosa 46001 = assay: MIC, agar plate dilution method; format: cell-based
Procedure: as §1, §2

M. morganii IID Kono = assay: MIC, agar plate dilution method; format: cell-based; settings: Morganella morganii
Procedure: as §1, §2

[2] = tested on: E. faecium NTCT12203(VanA); assay: MIC, agar plate dilution method; format: cell-based; settings: Enterococcus faecium
Procedure: as §1, §2

P. vulgaris OX-19 = assay: MIC, agar plate dilution method; format: cell-based; settings: Proteus vulgaris
Procedure: as §1, §2

M. luteus ATCC9341 = assay: MIC, agar plate dilution method; format: cell-based; settings: Micrococcus luteus
Procedure: as §1, §2

A. calcoaceticus IFO2552 = assay: MIC, agar plate dilution method; format: cell-based; settings: Acinetobacter calcoaceticus
Procedure: as §1, §2

E. cloacae IFO13535 = assay: MIC, agar plate dilution method; format: cell-based; settings: Enterobacter cloacae
Procedure: as §1, §2

S. aureus FDA209P = assay: MIC, agar plate dilution method; format: cell-based; settings: Staphylococcus aureus
Procedure: as §1, §2

MRSA N315 IR94 HR-1 = assay: MIC, agar plate dilution method; format: cell-based, methicillin-resistant Staphylococcus aureus; settings: Staphylococcus aureus, 20 h
Procedure: as §1, §2

MRSA 92-1191 = assay: MIC, agar plate dilution method; format: cell-based, methicillin-resistant Staphylococcus aureus; settings: Staphylococcus aureus
Procedure: as §1, §2

MRSA 70 = assay: MIC, agar plate dilution method; format: cell-based, methicillin-resistant Staphylococcus aureus; settings: Staphylococcus aureus
Procedure: as §1, §2

MRSA N315 IR94 = assay: MIC, agar plate dilution method; format: cell-based, methicillin-resistant Staphylococcus aureus; settings: Staphylococcus aureus, 20 h
Procedure: as §1, §2

Solubility in solvent = format: physicochemical; settings: listed as K04-0144C substance
[3] = tested on: clinical isolate of MRSA (K24 strain); assay: MRSA infectious model using silkworms; format: in vivo, silkworm; settings: 25 mg/kg; 72 hours after the inoculation
Procedure: As an alternative method for in vivo MRSA infection model using animals, the infection system using silkworms has been reported (Kaito et al, Microbial Pathogenesis, 32: 183-190, 2002). Effect of K04-0144A substance was measured according to this method.
Test organism used was the clinical isolate of MRSA (K24 strain). The MRSA was cultured statically using LB-10 medium (DIFCO) at 37° C. for 18 hours, and a 50 μl of the cultured strain was inoculated into the hemolymph of silkworm, 5 instar, 2nd day, (about 2 g, Ehime sansyu eggs Co., Japan). K04-0144A substance was prepared to a solution of 1 mg/ml, and 50 μl of the solution were administered by using syringe to the dorsal vessel of 5 silkworms infected with MRSA (25 mg/kg). Effect of the K04-0144A substance was evaluated by comparing the survival rate between a group with administering the sample and a group without administering the sample during the raising period of 72 hours after the inoculation. […] Further, all silkworms administered with 50 μl of MRSA bacterial suspension died within 72 hours after the inoculation.

[4] = tested on: MRSA (Clinical isolate, the Kitasato Hospital, Japan); assay: Enhancing action of K04-0144D substance on antibiotic activities, broth microdilution method; format: cell-based, methicillin-resistant Staphylococcus aureus

C=C(C/C=C(\C)CCC=C(C)C)CCC(C)(C)/C=C/CC/C(C)=C\COC(COP(=O)(O)OC1OC(C(N)=O)C(C)(O)C(OC(N)=O)C1OC1OC(CO)C(OC2OC(C)C(OC3OC(C(N)=O)C(O)C(O)C3O)C(O)C2NC(C)=O)C(O)C1NC(C)=O)C(=O)O (centres unmarked) [K04-0144C]
MIC (S. aureus ISP217; S. aureus ISP217, 37° C., 20 hours, read-out: MIC): ≤ 0.25 µg/mL | MIC (E. aerogenes NCTC10006; E. aerogenes NCTC10006, 37° C., 20 hours, read-out: MIC): 32 µg/mL (≈ 24.2 µM) | MIC (S. aureus ISP447; S. aureus ISP447, 37° C., 20 hours, read-out: MIC): ≤ 0.25 µg/mL | MIC (S. aureus Smith; S. aureus Smith, 37° C., 20 hours, read-out: MIC): 1 µg/mL (≈ 0.755 µM) | MIC (S. aureus 8325(pMS97)): 0.5 µg/mL (≈ 0.378 µM) | MIC (E. faecalis ATCC21212; E. faecalis ATCC21212, 37° C., 20 hours, read-out: MIC): 0.5 µg/mL (≈ 0.378 µM) | MIC (S. epidermidis IFO12648; S. epidermidis IFO12648, 37° C., 20 hours, read-out: MIC): 1 µg/mL (≈ 0.755 µM) | MIC (E. coli NIHJ JC-2; NIHJJC2, E. coli NIHJ JC-2, 37° C., 20 hours, read-out: MIC): 8 µg/mL (≈ 6.04 µM) | MIC (S. marcescens IFO12648; S. marcescens IFO12648, 37° C., 20 hours, read-out: MIC): 32 µg/mL (≈ 24.2 µM) | MIC (S. aureus 8325(pEP2104)): 0.5 µg/mL (≈ 0.378 µM) | MIC (P. aeruginosa E-2; E2, P. aeruginosa E-2, 37° C., 20 hours, read-out: MIC): 32 µg/mL (≈ 24.2 µM) | MIC (K. pneumoniae NCTN9632; K. pneumoniae NCTN9632, 37° C., 20 hours, read-out: MIC): 8 µg/mL (≈ 6.04 µM) | MIC ([1]; E. facecalis NTCT12201(VanA), 37° C., 20 hours, read-out: MIC): 0.5 µg/mL (≈ 0.378 µM) | MIC (P. mirabilis IFO3849; P. mirabilis IFO3849, 37° C., 20 hours, read-out: MIC): 8 µg/mL (≈ 6.04 µM) | MIC (C. freundii ATCC8090; C. freundii ATCC8090, 37° C., 20 hours, read-out: MIC): 64 µg/mL (≈ 48.3 µM) | MIC (P. aeruginosa 46001; Pseudomonas aeruginosa, P. aeruginosa 46001, 37° C., 20 hours, read-out: MIC): 32 µg/mL (≈ 24.2 µM) | MIC (M. morganii IID Kono; M. morganii IID Kono, 37° C., 20 hours, read-out: MIC): 32 µg/mL (≈ 24.2 µM) | MIC ([2]; E. faecium NTCT12203(VanA), 37° C., 20 hours, read-out: MIC): 64 µg/mL (≈ 48.3 µM) | MIC (P. vulgaris OX-19; OX19, P. vulgaris OX-19, 37° C., 20 hours, read-out: MIC): 4 µg/mL (≈ 3.02 µM) | MIC (M. luteus ATCC9341; M. luteus ATCC9341, 37° C., 20 hours, read-out: MIC): > 128 µg/mL | MIC (A. calcoaceticus IFO2552; A. calcoaceticus IFO2552, 37° C., 20 hours, read-out: MIC): 8 µg/mL (≈ 6.04 µM) | MIC (E. cloacae IFO13535; E. cloacae IFO13535, 37° C., 20 hours, read-out: MIC): 32 µg/mL (≈ 24.2 µM) | MIC (S. aureus FDA209P; S. aureus FDA209P, 37° C., 20 hours, read-out: MIC): 1 µg/mL (≈ 0.755 µM) | MIC (MRSA N315 IR94 HR-1): ≤ 0.25 µg/mL | MIC (MRSA 92-1191; MRSA 92-1191, 37° C., 20 hours, read-out: MIC): 0.5 µg/mL (≈ 0.378 µM) | MIC (MRSA 70; MRSA 70, 37° C., 20 hours, read-out: MIC): ≤ 0.25 µg/mL | MIC (MRSA N315 IR94): ≤ 0.25 µg/mL | Solubility in solvent (Solubility in solvent): Soluble in water, methanol and dimethyl sulfoxide; also recorded: Insoluble in acetone, chloroform and n-hexane

CN[C@H](CC(C)C)C(=O)N[C@H]1C(=O)N[C@@H](CC(N)=O)C(=O)N[C@H]2C(=O)N[C@H]3C(=O)N[C@H](C(=O)N[C@H](C(=O)O)c4cc(O)cc(O)c4-c4cc3ccc4O)[C@H](O)c3ccc(c(Cl)c3)Oc3cc2cc(c3O[C@@H]2O[C@H](CO)[C@@H](O)[C@H](O)[C@H]2O[C@H]2C[C@](C)(N)[C@H](O)[C@H](C)O2)Oc2ccc(cc2Cl)[C@H]1O [vancomycin, reference compound]
MIC (S. aureus ISP217; ISP217, 20 h): 1 µg/mL (≈ 0.69 µM) | MIC (E. aerogenes NCTC10006; NCTC10006, 20 h): > 32 µg/mL | MIC (S. aureus ISP447; ISP447, 20 h): 1 µg/mL (≈ 0.69 µM) | MIC (S. aureus Smith; 20 h): 1 µg/mL (≈ 0.69 µM) | MIC (S. aureus 8325(pMS97)): 1 µg/mL (≈ 0.69 µM) | MIC (E. faecalis ATCC21212; ATCC21212, 20 h): 4 µg/mL (≈ 2.76 µM) | MIC (S. epidermidis IFO12648; IFO12648, 20 h): 1 µg/mL (≈ 0.69 µM) | MIC (E. coli NIHJ JC-2; NIHJJC2, 20 h): > 32 µg/mL | MIC (S. marcescens IFO12648; IFO12648, 20 h): > 32 µg/mL | MIC (S. aureus 8325(pEP2104)): 2 µg/mL (≈ 1.38 µM) | MIC (P. aeruginosa E-2; E2, 20 h): > 32 µg/mL | MIC (K. pneumoniae NCTN9632; NCTN9632, 20 h): > 32 µg/mL | MIC ([1]; 20 h): > 32 µg/mL | MIC (P. mirabilis IFO3849; IFO3849, 20 h): > 32 µg/mL | MIC (C. freundii ATCC8090; ATCC8090, 20 h): > 32 µg/mL | MIC (P. aeruginosa 46001; Pseudomonas aeruginosa, 46001, 20 h): > 32 µg/mL | MIC (M. morganii IID Kono; 20 h): > 32 µg/mL | MIC ([2]; 20 h): > 32 µg/mL | MIC (P. vulgaris OX-19; OX19, 20 h): > 32 µg/mL | MIC (M. luteus ATCC9341; ATCC9341, 20 h): 1 µg/mL (≈ 0.69 µM) | MIC (A. calcoaceticus IFO2552; IFO2552, 20 h): > 32 µg/mL | MIC (E. cloacae IFO13535; IFO13535, 20 h): > 32 µg/mL | MIC (S. aureus FDA209P; FDA209P, 20 h): 1 µg/mL (≈ 0.69 µM) | survival of silkworms infected with MRSA [3]: survived after 72 hours of the inoculation | enhancing action of K04-0144D substance on the antibiotic's activity ([4]; K04-0144D substance 16 μg/ml): no enhancing action | Ratio (−/+K04-0144D) ([4]; MIC alone / MIC with K04-0144D substance 16 μg/ml): 1 | MIC ([4]; Staphylococcus aureus, MRSA, read-out: Minimum Inhibitory Concentration (−)): 1 µg/mL | MIC (MRSA N315 IR94 HR-1): 0.5 µg/mL (≈ 0.345 µM) | MIC (MRSA 92-1191; MRSA, 20 h): 1 µg/mL (≈ 0.69 µM) | MIC (MRSA 70; MRSA, 20 h): 0.5 µg/mL (≈ 0.345 µM) | MIC (MRSA N315 IR94): 0.5 µg/mL (≈ 0.345 µM)
